System: 556581-035-R-J1-PDC complex spheroid growth
Assay: Anticancer human tumor 556581-035-R-J1-PDC patient-derived ovarian carcinoma cell line growth inhibition [AhR]
Conditions: for IC50: curve of first compound; for viability, T/C: stronger effect = lower value
Summary of the method: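 Complex tumor spheroids co-cultured with HUVEC and human MSC stroma; AhR antagonists tested in combination with standard-of-care and investigational agents. Top concentration at or near clinical Cmax (else 10 microM), half-log dilutions; growth expressed as percent test/control.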

[1] = second compound 0.1 µM, first compound 0.0316 µM
[2] = second compound 0.1 µM, first compound 0.1 µM
[3] = second compound 0.316 µM, first compound 0.0316 µM
[4] = second compound 0.316 µM, first compound 0.1 µM
[5] = second compound 1 µM, first compound 0.0316 µM
[6] = second compound 1 µM, first compound 0.1 µM
[7] = second compound 3.16 µM, first compound 0.0316 µM
[8] = second compound 3.16 µM, first compound 0.1 µM
[9] = second compound 10 µM, first compound 0.0316 µM
[10] = second compound 10 µM, first compound 0.1 µM
[11] = second compound 0.1 µM, first compound 0.316 µM
[12] = second compound 0.1 µM, first compound 1 µM
[13] = second compound 0.1 µM, first compound 3.16 µM
[14] = second compound 0.1 µM, first compound 10 µM
[15] = second compound 0.316 µM, first compound 0.316 µM
[16] = second compound 0.316 µM, first compound 1 µM
[17] = second compound 0.316 µM, first compound 3.16 µM
[18] = second compound 0.316 µM, first compound 10 µM
[19] = second compound 1 µM, first compound 0.316 µM
[20] = second compound 1 µM, first compound 1 µM
[21] = second compound 1 µM, first compound 3.16 µM
[22] = second compound 1 µM, first compound 10 µM
[23] = second compound 3.16 µM, first compound 0.316 µM
[24] = second compound 3.16 µM, first compound 1 µM
[25] = second compound 3.16 µM, first compound 3.16 µM
[26] = second compound 3.16 µM, first compound 10 µM
[27] = second compound 10 µM, first compound 0.316 µM
[28] = second compound 10 µM, first compound 1 µM
[29] = second compound 10 µM, first compound 3.16 µM
[30] = second compound 10 µM, first compound 10 µM
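Wherever viability, T/C is given: compound exposure lasted 7 days; 100% = DMSO vehicle control growth.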

Structure (SMILES) | IC50 (second compound 0.1 µM) [µM] | IC50 (second compound 0.316 µM) [µM] | IC50 (second compound 1 µM) [µM] | IC50 (second compound 3.16 µM) [µM] | IC50 (second compound 10 µM) [µM] | viability, T/C [1] [%] | viability, T/C [2] [%] | viability, T/C [3] [%] | viability, T/C [4] [%] | viability, T/C [5] [%] | viability, T/C [6] [%] | viability, T/C [7] [%] | viability, T/C [8] [%] | viability, T/C [9] [%] | viability, T/C [10] [%] | viability, T/C [11] [%] | viability, T/C [12] [%] | viability, T/C [13] [%] | viability, T/C [14] [%] | viability, T/C [15] [%] | further results
CC1(C)CCC(CN2CCN(c3ccc(C(=O)NS(=O)(=O)c4ccc(NCC5CCOCC5)c([N+](=O)[O-])c4)c(Oc4cnc5[nH]ccc5c4)c3)CC2)=C(c2ccc(Cl)cc2)C1 + CC(CO)NC(=O)c1cc(-c2ccc(Cl)cc2)nn(-c2cnn(C)c2)c1=O | > 10 | > 10 | > 10 | > 10 | > 10 | 99.2 | 111 | 99.3 | 116 | 117 | 117 | 104 | 106 | 109 | 115 | 114 | 90.7 | 96.5 | 90.1 | 102 | viability, T/C [16]: 97.2%; viability, T/C [17]: 98.6%; viability, T/C [18]: 82.8%; viability, T/C [19]: 105%; viability, T/C [20]: 106%; viability, T/C [21]: 103%; viability, T/C [22]: 79.5%; viability, T/C [23]: 105%; viability, T/C [24]: 122%; viability, T/C [25]: 94%; viability, T/C [26]: 73%; viability, T/C [27]: 115%; viability, T/C [28]: 122%; viability, T/C [29]: 99%; viability, T/C [30]: 85.7%
CC1(C)CCC(CN2CCN(c3ccc(C(=O)NS(=O)(=O)c4ccc(NCC5CCOCC5)c([N+](=O)[O-])c4)c(Oc4cnc5[nH]ccc5c4)c3)CC2)=C(c2ccc(Cl)cc2)C1 + Cc1ccccc1N=Nc1ccc(NC(=O)c2ccnn2C)c(C)c1 | > 10 | > 10 | > 10 | > 10 | > 10 | 97.1 | 108 | 99.3 | 105 | 102 | 101 | 96.7 | 97.1 | 101 | 97.5 | 106 | 103 | 106 | 82.4 | 113 | viability, T/C [16]: 99.6%; viability, T/C [17]: 108%; viability, T/C [18]: 85.9%; viability, T/C [19]: 109%; viability, T/C [20]: 98.3%; viability, T/C [21]: 97.5%; viability, T/C [22]: 78.1%; viability, T/C [23]: 97.7%; viability, T/C [24]: 97.9%; viability, T/C [25]: 103%; viability, T/C [26]: 90.3%; viability, T/C [27]: 97.6%; viability, T/C [28]: 95.6%; viability, T/C [29]: 86.7%; viability, T/C [30]: 77.2%
CC1(C)CCC(CN2CCN(c3ccc(C(=O)NS(=O)(=O)c4ccc(NCC5CCOCC5)c([N+](=O)[O-])c4)c(Oc4cnc5[nH]ccc5c4)c3)CC2)=C(c2ccc(Cl)cc2)C1 + Cc1cncc(-c2nc(NCCc3c[nH]c4ccccc34)c3ncn(C(C)C)c3n2)c1 | > 10 | > 10 | > 10 | > 10 | > 10 | 104 | 98.6 | 95.6 | 98.2 | 105 | 99.9 | 95.2 | 101 | 88.9 | 80.6 | 102 | 91 | 93.1 | 77.5 | 102 | viability, T/C [16]: 95.1%; viability, T/C [17]: 96.3%; viability, T/C [18]: 72.3%; viability, T/C [19]: 101%; viability, T/C [20]: 91.5%; viability, T/C [21]: 85.6%; viability, T/C [22]: 76.9%; viability, T/C [23]: 91%; viability, T/C [24]: 87.8%; viability, T/C [25]: 80.6%; viability, T/C [26]: 67.8%; viability, T/C [27]: 87.6%; viability, T/C [28]: 83.7%; viability, T/C [29]: 81.2%; viability, T/C [30]: 67.1%

Continued, in another order:

IC50 (second compound 0.1 µM) [µM] | IC50 (second compound 0.316 µM) [µM] | IC50 (second compound 1 µM) [µM] | IC50 (second compound 3.16 µM) [µM] | IC50 (second compound 10 µM) [µM] | Structure (SMILES) | viability, T/C [1] [%] | viability, T/C [2] [%] | viability, T/C [3] [%] | viability, T/C [4] [%] | viability, T/C [5] [%] | viability, T/C [6] [%] | viability, T/C [7] [%] | viability, T/C [8] [%] | viability, T/C [9] [%] | viability, T/C [10] [%] | viability, T/C [11] [%] | viability, T/C [12] [%] | viability, T/C [13] [%] | viability, T/C [14] [%] | viability, T/C [15] [%] | further results
> 0.1 | > 0.1 | > 0.1 | > 0.1 | > 0.1 | CC[C@@]1(O)C(=O)OCc2c1cc1n(c2=O)Cc2cc3c(CN(C)C)c(O)ccc3nc2-1 + Cc1cncc(-c2nc(NCCc3c[nH]c4ccccc34)c3ncn(C(C)C)c3n2)c1 | 85 | 64.3 | 90.2 | 62.3 | 83.4 | 57.9 | 81.3 | 62.6 | 76.9 | 67.2 |  |  |  |  |  | viability, T/C (second compound 0.1 µM, first compound 0.000316 µM): 114%; viability, T/C (second compound 0.1 µM, first compound 0.001 µM): 110%; viability, T/C (second compound 0.1 µM, first compound 0.00316 µM): 105%; viability, T/C (second compound 0.1 µM, first compound 0.01 µM): 97.6%; viability, T/C (second compound 0.316 µM, first compound 0.000316 µM): 108%; viability, T/C (second compound 0.316 µM, first compound 0.001 µM): 115%; viability, T/C (second compound 0.316 µM, first compound 0.00316 µM): 109%; viability, T/C (second compound 0.316 µM, first compound 0.01 µM): 97.4%; viability, T/C (second compound 1 µM, first compound 0.000316 µM): 117%; viability, T/C (second compound 1 µM, first compound 0.001 µM): 115%; viability, T/C (second compound 1 µM, first compound 0.00316 µM): 105%; viability, T/C (second compound 1 µM, first compound 0.01 µM): 95%; viability, T/C (second compound 3.16 µM, first compound 0.000316 µM): 95.3%; viability, T/C (second compound 3.16 µM, first compound 0.001 µM): 101%; viability, T/C (second compound 3.16 µM, first compound 0.00316 µM): 104%; viability, T/C (second compound 3.16 µM, first compound 0.01 µM): 101%; viability, T/C (second compound 10 µM, first compound 0.000316 µM): 99.8%; viability, T/C (second compound 10 µM, first compound 0.001 µM): 103%; viability, T/C (second compound 10 µM, first compound 0.00316 µM): 99.3%; viability, T/C (second compound 10 µM, first compound 0.01 µM): 88.1%
< 0.0316 | < 0.0316 | < 0.0316 | < 0.0316 | < 0.0316 | Nc1ccn(C2OC(CO)C(O)C2(F)F)c(=O)n1 (stereo not given) + CC(CO)NC(=O)c1cc(-c2ccc(Cl)cc2)nn(-c2cnn(C)c2)c1=O | 37 | 40.3 | 36.6 | 35.2 | 35 | 36.5 | 32.8 | 37.3 | 37.4 | 34.4 | 35.8 | 35.8 | 37.5 | 31.4 | 39.2 | viability, T/C [16]: 41.1%; viability, T/C [17]: 32%; viability, T/C [18]: 29.3%; viability, T/C [19]: 36.5%; viability, T/C [20]: 38.5%; viability, T/C [21]: 36.2%; viability, T/C [22]: 36.6%; viability, T/C [23]: 36.2%; viability, T/C [24]: 38.3%; viability, T/C [25]: 35.5%; viability, T/C [26]: 34.3%; viability, T/C [27]: 42.5%; viability, T/C [28]: 40.6%; viability, T/C [29]: 39.6%; viability, T/C [30]: 36%
